{
  "source": "paper PMC6434083",
  "about": "“Identification and characterization of two types of amino acid-regulated acetyltransferases in actinobacteria” (Bioscience Reports, 2017)",
  "key": {"SvePatA [1]": {"target": "T1, SvePatA (Streptomyces venezuelae, UniProt F2RA54)", "T1 construct": "gene SVEN_0867; gene amplified from genomic DNA, pET-28a, E. coli BL21-DE3, purified; ACT-GNAT domains", "T1 sequence (F2RA54 1-488)": "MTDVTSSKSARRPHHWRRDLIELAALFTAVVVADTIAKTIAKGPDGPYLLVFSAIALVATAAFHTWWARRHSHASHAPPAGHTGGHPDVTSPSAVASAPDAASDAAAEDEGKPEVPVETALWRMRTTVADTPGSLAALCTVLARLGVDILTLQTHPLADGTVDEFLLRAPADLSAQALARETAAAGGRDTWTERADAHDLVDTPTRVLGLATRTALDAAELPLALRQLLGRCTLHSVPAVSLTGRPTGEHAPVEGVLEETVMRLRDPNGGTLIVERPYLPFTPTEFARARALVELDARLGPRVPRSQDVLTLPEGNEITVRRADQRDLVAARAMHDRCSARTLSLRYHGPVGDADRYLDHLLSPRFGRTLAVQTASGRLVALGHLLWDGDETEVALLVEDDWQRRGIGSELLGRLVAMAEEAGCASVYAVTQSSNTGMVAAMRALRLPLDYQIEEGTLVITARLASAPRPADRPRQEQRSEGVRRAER", "experiment": "coupled NADH assay, initial rate; CD shift also seen with […] Asn", "assay_type": "biochemical", "details": "allosteric activator; co-substrates Ac-CoA and SveAcs"}, "SvePatA [2]": {"target": "T2, SvePatA (Streptomyces venezuelae, UniProt F2RA54, K112A)", "T2 construct": "gene SVEN_0867; gene amplified from genomic DNA, pET-28a, E. coli BL21-DE3, purified; ACT-GNAT domains", "T2 sequence (F2RA54 entry or part of it K112A)": "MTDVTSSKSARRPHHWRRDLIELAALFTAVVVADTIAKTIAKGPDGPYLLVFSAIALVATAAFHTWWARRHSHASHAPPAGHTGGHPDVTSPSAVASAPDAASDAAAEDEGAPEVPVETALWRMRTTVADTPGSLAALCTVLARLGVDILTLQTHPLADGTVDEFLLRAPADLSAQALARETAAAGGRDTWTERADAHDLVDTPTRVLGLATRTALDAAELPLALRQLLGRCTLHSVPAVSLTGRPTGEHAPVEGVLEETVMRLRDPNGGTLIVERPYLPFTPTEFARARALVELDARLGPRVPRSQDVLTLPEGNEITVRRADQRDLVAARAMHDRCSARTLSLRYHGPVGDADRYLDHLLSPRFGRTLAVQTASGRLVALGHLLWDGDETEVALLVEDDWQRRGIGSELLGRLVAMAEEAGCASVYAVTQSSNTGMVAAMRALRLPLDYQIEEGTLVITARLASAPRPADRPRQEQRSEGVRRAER", "experiment": "acetyltransferase activity with Asn", "assay_type": "biochemical", "details": "allosteric; co-substrates Ac-CoA and SveAcs"}, "AmiPatA": {"target": "T3, AmiPatA (Actinosynnema mirum, UniProt C6WC99)", "T3 construct": "gene Amir_5672; gene amplified from genomic DNA, pET-28a, E. coli BL21-DE3, purified; ACT-GNAT domains", "T3 sequence (C6WC99 1-372)": "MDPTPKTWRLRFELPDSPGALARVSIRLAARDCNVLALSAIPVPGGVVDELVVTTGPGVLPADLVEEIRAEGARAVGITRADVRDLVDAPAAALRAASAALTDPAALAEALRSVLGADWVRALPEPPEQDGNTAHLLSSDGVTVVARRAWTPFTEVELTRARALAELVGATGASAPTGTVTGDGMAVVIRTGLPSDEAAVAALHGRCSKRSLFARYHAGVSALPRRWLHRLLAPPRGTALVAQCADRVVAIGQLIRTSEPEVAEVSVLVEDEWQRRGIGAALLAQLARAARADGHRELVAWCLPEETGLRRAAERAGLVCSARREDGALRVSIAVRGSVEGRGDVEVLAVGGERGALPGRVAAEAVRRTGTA", "experiment": "coupled NADH assay, initial rate; CD shift also seen", "assay_type": "biochemical", "details": "allosteric activator, ACT domain; co-substrates Ac-CoA and AmiAcs"}, "purified protein": {"substrate": "CC(=O)SCCNC(=O)CCNC(=O)[C@H](O)C(C)(C)COP(=O)(O)OP(=O)(O)OC[C@H]1O[C@@H](n2cnc3c(N)ncnc32)[C@H](O)[C@@H]1OP(=O)(O)O", "experiment": "purified protein", "assay_type": "biochemical, Actinosynnema mirum", "details": "co-substrate AmiAcs; no Cys"}},
  "data": [
    {"molecule": "NC(=O)C[C@H](N)C(=O)O", "note": "[Asn]", "values": [
      {"measurement": "% of initial rate without Asn (2.23 to 3.92 nmol NADH per min/ml)", "setting": "SvePatA [1]", "value": 176, "unit": "%"},
      {"measurement": "activation still observed", "setting": "SvePatA [2]", "value": "Allosteric effect of Asn on SvePatA activity was still observed in two mutants K112A"}
    ]},
    {"molecule": "N[C@@H](CS)C(=O)O", "note": "[Cys]", "values": [
      {"measurement": "% of initial rate without Cys (3.8 to 6.8 μM/min)", "setting": "AmiPatA", "value": 179, "unit": "%"}
    ]},
    {"molecule": "AmiPatA (Actinosynnema mirum DSM 43827) (protein, gene amplified from genomic DNA, pET-28a, E. coli BL21-DE3, purified; ACT-GNAT domains) MDPTPKTWRLRFELPDSPGALARVSIRLAARDCNVLALSAIPVPGGVVDELVVTTGPGVLPADLVEEIRAEGARAVGITRADVRDLVDAPAAALRAASAALTDPAALAEALRSVLGADWVRALPEPPEQDGNTAHLLSSDGVTVVARRAWTPFTEVELTRARALAELVGATGASAPTGTVTGDGMAVVIRTGLPSDEAAVAALHGRCSKRSLFARYHAGVSALPRRWLHRLLAPPRGTALVAQCADRVVAIGQLIRTSEPEVAEVSVLVEDEWQRRGIGAALLAQLARAARADGHRELVAWCLPEETGLRRAAERAGLVCSARREDGALRVSIAVRGSVEGRGDVEVLAVGGERGALPGRVAAEAVRRTGTA", "values": [
      {"measurement": "Km", "setting": "purified protein", "value": "5.5 ± 1.1", "unit": "µM"},
      {"measurement": "kcat", "setting": "purified protein", "value": "0.19 ± 0.008", "unit": "s⁻¹"},
      {"measurement": "kcat/Km", "setting": "purified protein", "value": "36000 ± 8000", "unit": "M⁻¹ s⁻¹"}
    ]}
  ]
}
